These results are taken from ChEMBL document CHEMBL1201862, “PubChem BioAssay data set” (2004).

Among the test systems are LOX IMVI; PC-3; RXF 393; Hs-578T; UO-31; MOLT-4; Malme-3M; MCF7; DMS-114; SW-620; HOP-92; DMS-273; TK-10; UACC-257; NCI-H23; HOP-62; SN12C; HCT-15; OVCAR-3; RPMI-8226.
Assay in all cases: growth of human tumour cells (NCI), 48 h

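Compound exposure: 48 hours, 5 concentrations, 96-well plates. At the GI50, growth is halved.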 Calls of active or inactive are those of the source. No stated cut-off is given here; in the data, active = GI50 up to about 1.1 µM and inactive = higher.

Take `COc1ccc2nc(C)cc(NCCCCCCCCCNc3cc(C)nc4ccc(OC)cc34)c2c1`: the GI50 was 0.714 µM (active) in the assay on LOX IMVI; 1.02 µM (active) in the assay with PC-3; 2.05 µM (inactive) in the assay on RXF 393; 1.64 µM (inactive) in the assay on Hs-578T; 13.6 µM (inactive) with UO-31; 1.29 µM (inactive) in the assay with MOLT-4. Further, the GI50 was 9.27 µM (inactive) in the assay with Malme-3M; 1.21 µM (inactive) with MCF7; 1.15 µM (inactive) in the assay on DMS-114; 0.957 µM (active) with SW-620; 1.24 µM (inactive) in the assay on HOP-92; 0.931 µM (active) with DMS-273. For the same compound, the GI50 with TK-10 was 4.66 µM (inactive); with UACC-257, 13.7 µM (inactive); in the assay with NCI-H23, 1.73 µM (inactive); with HOP-62, 2.26 µM (inactive); in the assay on SN12C it was 3.6 µM (inactive); with HCT-15, 2.3 µM. The GI50 was 1.24 µM (inactive) in the assay with OVCAR-3 and 1.11 µM (active) with RPMI-8226.

Consider `O=C(CSc1c2ccccc2nc2ccccc12)Nc1ccccc1-c1ccccc1NC(=O)CSc1c2ccccc2nc2ccccc12`, for which the GI50 was 17.2 µM (inactive) in the assay on LOX IMVI; 21.5 µM (inactive) in the assay on RXF 393; 34.2 µM (inactive) with UO-31; 5.27 µM (inactive) in the assay on MOLT-4; 30.8 µM (inactive) in the assay on Malme-3M; 15 µM (inactive) in the assay on DMS-114. Further, the GI50 with SW-620 was 28.6 µM (inactive); in the assay on HOP-92 it was 30.8 µM (inactive); with DMS-273, 32.2 µM (inactive); in the assay on TK-10, 60.4 µM (inactive); with UACC-257 it was 22 µM (inactive); in the assay with NCI-H23 it was 18.9 µM (inactive). In addition, the GI50 in the assay with HOP-62 was 31.8 µM (inactive); in the assay on SN12C it was 28 µM (inactive); in the assay on HCT-15, 20.2 µM; in the assay with OVCAR-3, 16.4 µM (inactive); in the assay on RPMI-8226, 4.46 µM (inactive).

`O=C(O)c1cc2ccc(Cl)cc2c(O)c1C1=CCCCC1`: the GI50 in the assay on LOX IMVI was 33 µM (inactive); in the assay with RXF 393, 36.5 µM (inactive); with UO-31 it was 34.8 µM (inactive); with MOLT-4, 36.4 µM (inactive); in the assay on Malme-3M, 50.1 µM (inactive); with DMS-114, 24.8 µM (inactive). Also, the GI50 is 44.5 µM (inactive) with SW-620; 23.2 µM (inactive) with HOP-92; 20 µM (inactive) in the assay with DMS-273; 63.8 µM (inactive) in the assay on TK-10; 31.5 µM (inactive) with UACC-257; 26.4 µM (inactive) in the assay with NCI-H23. Besides, the GI50 in the assay with HOP-62 is 33.7 µM (inactive); in the assay on SN12C, 46.8 µM (inactive); in the assay on HCT-15 it was 56.8 µM; in the assay with OVCAR-3 it was 33.5 µM (inactive); in the assay on RPMI-8226, 34.6 µM (inactive).

Take `O=C(Cc1ccccc1)C(c1ccccc1)S(=O)(=O)c1ccccc1` (configuration not stated): the GI50 with LOX IMVI is > 100 µM (inactive); with RXF 393 it was 67 µM (inactive); in the assay on UO-31, 41.2 µM (inactive); in the assay with MOLT-4 it was > 100 µM (inactive); in the assay on Malme-3M, > 100 µM (inactive); in the assay on DMS-114, 48.6 µM (inactive). The GI50 with SW-620 is > 100 µM (inactive); with HOP-92 it was 81.5 µM (inactive); with DMS-273, > 100 µM (inactive); in the assay with TK-10, > 100 µM (inactive); in the assay with UACC-257 it was > 100 µM (inactive); in the assay on NCI-H23, 77.4 µM (inactive). The GI50 in the assay on HOP-62 is > 100 µM (inactive); in the assay with SN12C it was > 100 µM (inactive); in the assay with HCT-15, 83.6 µM; in the assay on OVCAR-3 it was > 100 µM (inactive); in the assay on RPMI-8226, > 100 µM (inactive).

On to `O=C1Nc2ccc(Br)cc2/C1=N/Nc1ccc([N+](=O)[O-])cc1`, for which the GI50 with LOX IMVI is 21 µM (inactive); in the assay with RXF 393, 19.5 µM (inactive); with UO-31, 30.1 µM (inactive); in the assay on MOLT-4, 34.3 µM (inactive); in the assay on Malme-3M, 24.1 µM (inactive); in the assay on DMS-114, 18.5 µM (inactive). In addition, the GI50 in the assay with SW-620 was 26.4 µM (inactive); in the assay with HOP-92, 13.6 µM (inactive); in the assay with DMS-273 it was 9.95 µM (inactive); in the assay with TK-10, 18.3 µM (inactive); with UACC-257, 20.3 µM (inactive); with NCI-H23 it was 22 µM (inactive). Besides, the GI50 in the assay on HOP-62 is 18.9 µM (inactive); in the assay with SN12C it was 19.3 µM (inactive); with HCT-15, 27.2 µM; with OVCAR-3, 19.9 µM (inactive); in the assay with RPMI-8226 it was 16.4 µM (inactive).

Regarding `Cc1ccccc1Nc1nc2c(s1)C(=O)c1ccccc1C2=O`, the GI50 in the assay with LOX IMVI was 2.26 µM (inactive); with PC-3, 2.26 µM (inactive); in the assay with RXF 393, 8.87 µM (inactive); with UO-31, 5.07 µM (inactive); in the assay on MOLT-4 it was 2.43 µM (inactive); in the assay with Malme-3M, 15 µM (inactive). Also, the GI50 in the assay with MCF7 is 2 µM (inactive); with DMS-114, 2 µM (inactive); with SW-620, 2.49 µM (inactive); in the assay with HOP-92, 11.9 µM (inactive); in the assay on DMS-273 it was 8.07 µM (inactive); in the assay with TK-10, 22.7 µM (inactive). Further, the GI50 in the assay with UACC-257 is 5.5 µM (inactive); in the assay with NCI-H23, 3.43 µM (inactive); with HOP-62 it was 16.4 µM (inactive); with SN12C, 3.3 µM (inactive); in the assay on HCT-15, 3.78 µM; with OVCAR-3, 2.24 µM (inactive). Also, the GI50 in the assay on RPMI-8226 is 2.93 µM (inactive).
